Measured values taken from patent publication US5185360A, “Dihydroindenoindole compounds and methods for using the same” (University of Bath, priority 1989, dated 1993).

What was measured:
[1] = tested on: lipid peroxidation of soy bean phospholipids; experiment: Ascorbate/Fe^2+-dependent lipid peroxidation; type: biochemical; conditions: inhibition of ascorbate/Fe^2+-dependent lipid peroxidation by 50%; pH 7.4, room temperature, 30 min
Excerpt: (§1) The most important feature of the compounds of the invention is their efficacy as free-radical scavengers or antioxidants. An assay system measuring the concentration of the compounds of formulas (IA) and (IB) required to inhibit lipid peroxidation by 50% (IC50) was used. Other assays described below are the red blood cell fragility test used for measuring membrane stabilisation by indenoindoles. (Table 2), and protection by indenoindoles against cytotoxicity of N-methyl-N'-nitro-N-nitrosoguanidine (MNNG) in rat hepatocytes (Table 3). MNNG is a highly cytotoxic agent, the mechanism of action of which may involve a radical-mediated membrane destabilization.
For the ferrous/ascorbate lipid peroxidation system, 6.25 ml of 0.1 M potassium phosphate buffer (KPi), pH 7.4, was added to 12.5 mg dried soy bean phospholipids. After flushing with argon for 2 min, the suspension was sealed with five layers of Parafilm and sonicated until the suspension was translucent. The final reaction mixture was composed of 200 μg/ml phospholipid, 10 μM FeNH4 (SO4)2 or Fe(NH4)2 (SO4)2, and 100 μM ascorbic acid in 0.1 M KPi (pH 7.4), and the antioxidant to be tested in acetone or DMSO. The volume of vehicle never exceeded 1% of the total volume. The reaction was initiated by the addition of ascorbic acid plus iron. The reaction was continued at room temperature in a shaking water bath for 30 min and then stopped by the addition of […] of 0.5 M butylated hydroxytoluene in DMSO. The above procedure and the subsequent determination of 2-thibarbituric acid-reactive material is described in: Shertzer, H. G. et al, Biochem. Pharmacol. 37, 333 (1988).

red blood cells = experiment: Membrane stabilization in red blood cells (red blood cell fragility test); type: cell-based, rat; conditions: linear regression slope: percentage protection against osmolysis per μM protecting agent; pH 7.4
Excerpt: as §1
The membrane stabilization effect of indenoindoles was assayed by the red blood cell fragility test. Rats were anesthetized with 65 mg phenobarbital per kg body weight by i.p. injection. Blood samples were removed into a heparinized syringe from the left ventricle and diluted 20-fold with buffer containing 140 mM NaCl, 10 mM sodium citrate and 5 mM glucose (pH 7.4) at 0° C. Diluted blood was kept on ice. A 0.75 ml aliquot of blood was added to a 4 ml cuvette containing 10 μl of the antioxidant dissolved in DMSO vehicle. After I min of gentle swirling, 0.75 ml of 0.9 NaCl or H2 O were added to the cuvette by forceful pipetting, and the absorbance at 656 nm was recorded with a Beckman DU-70 spectrophotometer. When H2 O was added in the absence of a stabilizing agent, absorbance decreased within 15 sec to 0.8. Addition of NaCl instead of H2 O gave a time-independent absorbance of 2.2. In the presence of increasing concentrations of stabilizing chemicals, the absorbance decrease observed after the addition of water was diminished. The % protection from osmolysis was obtained from the equation [[(2.2-0.8)- A]/(2.2-0.8)]×100%, where A=2.2 minus the absorbance decrease when water is added in the presence of a known concentration of chemical. The % protection is then plotted against several concentrations of the chemical being treated. The red blood cell fragility protective index value (RBC-PIV) is the linear regression slope of this plot, expressed as the percentage protection against osmolysis per μM protecting agent.

rat hepatocytes = experiment: Protection against cytotoxic effects of MNNG in hepatocytes; type: cell-based, rat (male Sprague-Dawley); conditions: Hepatocyte, concentration of compound required to extend by 1 hour the time needed for MNNG to kill 50% of the viable cells, 0.5 mM MNNG
Excerpt: as §1
The protective effects of indenoindoles on MNNG-induced cytotoxicity was assayed with rat hepatocytes. Hepatocytes were prepared from male Sprague-Dawley rats by collagenase treatment as originally described by Zahlten and Stratman (Zahlten, R. N. and Stratman, F. W., Arch. Biochem. Biophys. 163, 600 (1988)), as modified by Reitman et al. (Reitman, F. A. Shertzer, H. G. and Berger, M. L., Biochem. Pharmacol. 37, 3183 (1988)). In order to improve viability, cells were centrifuged through 0.508g/ml Percoll (Pharmacia AB, Uppsala, Sweden) in 137 mM NaCl, 8.1 mM Na2 HPO4 and 1.5 mM KH2 PO4 (pH 7.4). Putative protecting agents were added to the cells as solutions in DMSO, with the final concentration of DMSO never exceeding 5 μl/ml of cell suspension. MNNG was added to a concentration of 0.5 mM as a solution in ethanol, giving a final concentration of ethanol of 1%; ethanol alone was by itself without effect. Viability was determined as the percentage of cells that excluded 0.2% trypan blue. Values are the concentration of compound required to extend by 1 hour, the time needed for MNNG to kill 50% of the viable cells.

mouse liver microsomes = conditions: NADPH-fortified mouse liver microsomes, initiated with CCl4; FASEB J. 2, A 407 (1988); cited from earlier work
lipid peroxidation = conditions: Fd Chem. Toxicol. 26, 517 (1988); cited from earlier work

| Structure (SMILES) | pIC50 [1] | RBC-PIV (red blood cell fragility protective index value) (red blood cells) | further results |
| --- | --- | --- | --- |
| COc1ccc2[nH]c3c(c2c1)-c1ccccc1C3 [9-Methoxy-iso-DHII, 5,6-Dihydro-9-methoxyindeno[2,1-b]indole] | 6.4 |  |  |
| Clc1cccc2c3c([nH]c12)-c1ccccc1C3 [6-Chloro-DHII, 5,10-Dihydro-6-chloroindeno[1,2-b]indole] | 5.2 |  |  |
| Cn1c2c(c3ccccc31)Cc1ccccc1-2 [5-Methyl-DHII, 5,10-Dihydro-5-methylindeno[1,2-b]indole] | 5.1 | 0.74 %/μM | IC50 (rat hepatocytes): 6 µM |
| Fc1ccc2[nH]c3c(c2c1)Cc1ccccc1-3 [8-Fluoro-DHII, 5,10-Dihydro-8-fluoroindeno[1,2-b]indole] | 5.6 |  |  |
| CCNc1ccc2c(c1)Cc1c-2[nH]c2ccccc12 [2-Ethylamino-DHII, 5,10-Dihydro-2-(N-ethylamino)indeno[1,2-b] indole] | 7.9 |  |  |
| COc1ccc2[nH]c3c(c2c1)Cc1ccccc1-3 [8-Methoxy-DHII, 5,10-Dihydro-8-methoxyindeno[1,2-b]indole] | 6.2 |  |  |
| CCN(CC)c1ccc2c(c1)Cc1c-2[nH]c2ccccc12 [2-Diethylamino-DHII, 5,10-Dihydro-2-(N,N-diethylamino)indeno[1,2-b]indole] | 7.4 |  |  |
| Cc1cc(C)c2[nH]c3c(c2c1)Cc1ccccc1-3 [6,8-Dimethyl-DHII, 5,10-Dihydro-6,8-dimethylindeno[1,2-b]indole] | 6.1 |  |  |
| CC(C)c1ccc2[nH]c3c(c2c1)Cc1ccccc1-3 [8-Isopropyl-DHII, 5,10-Dihydro-8-iso-propylindeno[1,2-b]indole] | 5.6 |  |  |
| Cc1c(C)c2c(c(C)c1O)CCC(C)(CCCC(C)CCCC(C)CCCC(C)C)O2 (stereo not drawn) [α-Tocopherol (Vitamin E), α-Tocopherol, reference compound] | 5.0 | 0.10 %/μM |  |

More lines, main results first:

| pIC50 [1] | Structure (SMILES) | RBC-PIV (red blood cell fragility protective index value) (red blood cells) | further results |
| --- | --- | --- | --- |
| 5.7 | CC1c2ccccc2-c2[nH]c3ccccc3c21 (centres unmarked) [10-Methyl-DHII, 5,10-Dihydro-10-methylindeno[1,2-b]indole] |  |  |
| 6.1 | CC1(C)c2ccccc2-c2[nH]c3ccccc3c21 [10,10-Dimethyl-DHII, 5,10-Dihydro-10,10-dimethylindeno[1,2-b]indole] | 0.48 %/μM |  |
| 5.7 | Cc1ccc2[nH]c3c(c2c1)Cc1ccccc1-3 [8-Methyl-DHII, 5,10-Dihydro-8-methylindeno[1,2-b]indole] |  |  |
| 5.8 | c1ccc2c(c1)Cc1[nH]c3ccccc3c1-2 [iso-DHII, 5,6-Dihydroindeno[2,1-b]indole] | 0.50 %/μM | IC50 (rat hepatocytes): 3.4 µM; inhibition of lipid peroxidation (mouse liver microsomes): inhibiting lipid peroxidation |
| 5.8 | c1ccc2c(c1)Cc1c-2[nH]c2ccccc12 [DHII, 5,10-Dihydroindeno[1,2-b]indole] | 0.49 %/μM | IC50 (rat hepatocytes): 3.1 µM; inhibition of lipid peroxidation (mouse liver microsomes): inhibiting lipid peroxidation; inhibition of lipid peroxidation (lipid peroxidation): potent inhibitor of lipid peroxidation |
